From patent publication US8889733B2, “Artonin I to treat resistant infectious Staphylococcus aureus” (priority 2013, dated 2014)
Where two headings read alike, the source gives them in different places.

Tests used:
Clinical Isolates [1] = assay: Reversal of Multi-Drug Resistance (MIC/FIC of antibiotics combined with compound 1); type: cell-based, Staphylococcus aureus; settings: for MIC: Staphylococcus aureus; for FIC (b): FIC of Compound 1 in combination with the antibiotic named as label; for FIC (a): FIC of the antibiotic = MIC in combination with Compound 1 / MIC alone; for FIC (s): FIC (a) + FIC (b), antibiotic plus Compound 1
Description: (§1) Assay Protocol: Protocol of Chung et al, (2001), with slight modifications, was followed. 5×10 MDR S. aureus cells were treated with 20 μg/mL of test compounds and incubated for 20 hours. Control cells were not exposed to any test compound and antibiotic. In 96-well plate, increasing concentration of antibiotics, along with the fixed concentration of test compounds were added. Inoculum of 5×10^5 cells was applied to all wells. The presence or absence of growth in all combination wells were noted visually and by using the dye Alamar blue.
(§2) Fractional inhibitory concentrations were calculated by the above cited formulae. • FIC of Antibiotic a (FICa)=MIC of Antibiotic a in combination/MIC of antibiotic a alone • FIC of Compound b (FICb)=MIC of Compound b in combination/MIC of compound b alone
(§3) The sum of Fractional Inhibitory Concentration (FICs) index of: (FICa)+(FICb)=(FICs)

EMRSA-17 [2] = assay: as above; type: cell-based, Staphylococcus aureus; settings: for FIC (s): FIC (a) + FIC (b), antibiotic plus Compound 1; for FIC (b): FIC of Compound 1 in combination with the antibiotic named as label; for MIC: Staphylococcus aureus; for FIC (a): FIC of the antibiotic = MIC in combination with Compound 1 / MIC alone
Description: as §1, §2, §3

Clinical Isolates [3] = assay: High throughput screening assay (MABA) against MDR S. aureus; type: cell-based; settings: Staphylococcus aureus, 20 μg/mL, 20 hours, Alamar Blue
Description: (§4) High throughput screening assay (MABA) against MDR S. aureus:
(§5) Inocula Preparation: Isolated colonies of S. aureus were picked and inoculated into Muller Hinton broth and incubated at 37° C. for 20 hours. After 20 hours, the turbidity was checked and adjusted to 0.5 McFarland standards.
(§6) Assay Protocol: Assays were performed according to method reported by Sarkar et al. (2007) with slight modifications. Flat bottom, polystyrene, non-tissue culture treated, sterile 96-well micro titer plates were used with proper labeling. Stock solutions of test compounds 1 and 2 were prepared in DMSO with the concentration of 1 mg/mL. 4 μL from stock solutions were distributed in each well, except the control wells of the plate. Two fold serial dilutions using sterile broth were made with the final volume of […], in each well. The bacterial suspensions (cone 5×10^5) were then added in each wells. The plate was sealed by parafilm and incubated at 37° C. for 20 hours. The plates were prepared in triplicate. Next day, 10% Alamar Blue Dye was added to the culture and kept on shaking incubator at 37° C. for 3 to 4 hours. The color change was then assessed visually, qualitatively and quantitatively by recording absorbance at 570 and 600 nm by a spectrophotometer. The percentage inhibition of compound 1 and 2 against EMRSA-16, and 17, MRSA-252 and clinical isolate by MABA assays are given in Table 1.
(§7) Percentage reduction and inhibition of Alamar blue dye was calculated by using the following formula.
(§8) Here control wells contain only media plus Alamar Blue, while the test wells contains both Alamar Blue with the test compounds.

EMRSA-16 = assay: as above; type: cell-based; settings: Staphylococcus aureus, 20 μg/mL, 20 hours, Alamar Blue
Description: as §4, §5, §6, §7, §8

EMRSA-17 [4] = assay: as above; type: cell-based; settings: Staphylococcus aureus, 20 μg/mL, 20 hours, Alamar Blue
Description: as §4, §5, §6, §7, §8

MRSA-252 = assay: as above; type: cell-based; settings: Staphylococcus aureus, 20 μg/mL, 20 hours, Alamar Blue
Description: as §4, §5, §6, §7, §8

EMRSA-17 [5] = assay: Membrane potential and integrity, DiBAC4(3) flow cytometry; type: cell-based, Staphylococcus aureus; settings: 20 μg/mL, 20 hrs, flow cytometry FL1
Description: (§9) Compound Treatment: 5×10^5 MDR S. aureus cells were treated with 20 μg/mL of test compounds and incubated for 20 hours, while the control cells were incubated without test compound.
(§10) Cell Staining: Staining procedure of Jepras et al. (1997) was adapted with slight modifications. Stock solutions (1 mg/mL) for the membrane potential probe DiBAC4(3) were made in absolute ethanol and stored at −20 ° C. […] Samples (1 mL) of exponentially growing S. aureus were taken from broth cultures. Samples were centrifuged at 11,000 rpm for 2 min and the supernatant was discarded. Cell pellets were resuspended in 4 mL of filtered phosphate-buffered saline (PBS). Fluorogenic substrates DiBAC4(3) were added to the cell suspensions to obtain a final concentration of 10 μg/mL. The suspensions were then incubated at 37° C. for 30 min. Cells were washed by centrifugation in the PBS buffer and then analyzed by flow cytometry.
(§11) Flow cytometry data acquisition: The flow cytometric assay was performed on a Becton Dickinson FACSCaliber™ flow cytometer. A total of 50,000 cells were counted by using Cell Quest software (BD) for data acquisition and analysis. The emission maximum of DiBAC4(3) was at 516 nm and its green fluorescence was detected in the channel FL1 (Veal et al., 2000).

clinical isolate = assay: as above; type: cell-based, Staphylococcus aureus; settings: 20 μg/mL, 20 hrs, flow cytometry FL1
Description: as §9, §10, §11

[6] = system: MDR Efflux Pumps of EMRSA-17; assay: EtBr accumulation/efflux flow cytometry assay; type: cell-based, Staphylococcus aureus; settings: compound 1 in combination with antibiotics, 3 hrs, FL2
Description: (§12) Assay Protocol: Protocol of Kalle et al, (2009) was employed with some modifications. Control cells were not exposed with any test compound or antibiotic. Combination of test compound and antibiotics were incubated for 3 hrs in test cells. Ethiduim bromide (EtBr) was added in to the Eppendorff, containing the combination of both drugs and compound. Cells with the drugs were also incubated and stained with EtBr. Control and treated samples were centrifuged for 3 min at 13,000 rpm. Supernatant was […] and the pallet was washed with PBS. Positive control contains ethidium bromide, while negative control was EtBr free. Flow cytometric analysis was carried out done by using the FL2 channel.
(§13) Flow cytometry data acquisition: The flow cytometric assay was performed. A total of 50,000 cells were counted by using Cell Quest software (BD) for data acquisition and analysis. EtBr was excited at 488 nm and the fluorescence detected through a 585 nm filter (FL-2 channel).

[7] = system: MDR Efflux Pumps of clinical isolates; assay: EtBr accumulation/efflux flow cytometry assay; type: cell-based, Staphylococcus aureus; settings: compound 1 in combination with antibiotics, 3 hrs, FL2
Description: as §12, §13

Clinical Isolates [8] = assay: Lucigenin CL assay of Reactive Oxygen Species (O2-) production; type: cell-based, Staphylococcus aureus; settings: different concentrations, RLU
Description: (§14) Assay Protocol: Protocol of Albesa et al (2002) was followed with slight modifications. 5×10^5 Cells were treated with the different concentrations of test compounds. Cells with compounds were incubated with leueigenin and filtered phosphate buffer saline. DMSO was added to the each well at the time of RLU determination to trigger the reaction. […] Positive control contains DMSO, but not the test compound. Determination by chemiluminescence (CL) was performed at room temperature by luminometer. The light emission results were measured in relative light unit (RLU).

EMRSA-17 [9] = assay: as above; type: cell-based, Staphylococcus aureus; settings: different concentrations, RLU
Description: as §14

[10] = antibiotic alone, read-out: MIC (a)
[11] = antibiotic in combination with Compound 1
[12] = antibiotic in combination with Compound 1, listed as clindamycin
[13] = Compound 1 alone, read-out: MIC (b)

| Compound | MIC (Clinical Isolates [1]; [10]) | Effect (Clinical Isolates [1]; [11]) | FIC (s) (EMRSA-17 [2]) | FIC (b) (EMRSA-17 [2]) | MIC (EMRSA-17 [2]; [10]) | Effect (EMRSA-17 [2]; [11]) | MIC (a + b) (EMRSA-17 [2]; [11]) | MIC (a + b) (Clinical Isolates [1]; [11]) | MIC (a) (EMRSA-17 [2]; antibiotic alone) | other results |
| --- | --- | --- | --- | --- | --- | --- | --- | --- | --- | --- |
| Cc1onc(-c2ccccc2)c1C(=O)N[C@@H]1C(=O)N2[C@@H]1SC(C)(C)[C@@H]2C(=O)O [Oxacillin] | 2080 µg/mL | Synergistic | 0.0809 | 0.08 | 4100 µg/mL | Synergistic | 2 µg/mL | – | – | – |
| Neomycin | – | Synergistic | 0.336 | 0.32 | – | Synergistic | 8 µg/mL | 8 µg/mL | 512 µg/mL | FIC (b) (Clinical Isolates [1]): 0.320; FIC (a) (Clinical Isolates [1]): 0.0078; FIC (a) (EMRSA-17 [2]): 0.1562; MIC (a) (EMRSA-17 [2]; antibiotic alone, listed as neomycin): 256 µg/mL |
| O=C(N[C@H](CO)[C@H](O)c1ccc([N+](=O)[O-])cc1)C(Cl)Cl [Chloramphenicol] | 1020 µg/mL | Synergistic | 0.328 | 0.32 | 1020 µg/mL | Synergistic | 8 µg/mL | 8 µg/mL | – | – |
| CCC[C@@H]1C[C@@H](C(=O)N[C@@H]([C@H]2O[C@H](SC)[C@H](O)[C@@H](O)[C@H]2O)[C@H](C)Cl)N(C)C1 [Clindamicin] | – | Synergistic | 0.322 | 0.32 | – | Synergistic | 8 µg/mL | 16 µg/mL | 4096 µg/mL | MIC (a) (Clinical Isolates [1]; antibiotic alone): 4096 µg/mL; Effect (Clinical Isolates [1]; [12]): partial synergistic activity; MIC (a + b) (Clinical Isolates [1]; [12]): 8 µg/mL; MIC (a) (EMRSA-17 [2]; antibiotic alone, listed as clindamycin): 1024 µg/mL |
| Cc1cc(NS(=O)(=O)c2ccc(N)cc2)no1 [Sulfamethoxazole] | 2050 µg/mL | Synergistic | 0.324 | 0.32 | 2080 µg/mL | Synergistic | 8 µg/mL | – | – | – |
| O=C(O)c1cn(C2CC2)c2cc(N3CCNCC3)c(F)cc2c1=O [Ciprofloxacin] | – | – | 0.164 | 0.16 | – | Synergistic | 4 µg/mL | – | – | – |
| CC(C)=CCc1c(O)ccc(C(=O)[C@@H]2C(c3ccc(O)cc3O)CC(C)=C[C@@H]2c2c(O)cc3oc(-c4ccc(O)cc4O)cc(=O)c3c2O)c1O (stereo partly shown) [Compound 1, artonin I] | – | – | – | – | – | – | – | – | – | inhibition at 20 µg/mL (Clinical Isolates [3]): 88.9%; inhibition at 20 µg/mL (EMRSA-16): 88.7%; inhibition at 20 µg/mL (EMRSA-17 [4]): 91.1%; inhibition at 20 µg/mL (MRSA-252): 69.4%; MIC (Clinical Isolates [1]; [13]): 25 µg/mL; MIC (EMRSA-17 [2]; [13]): 25 µg/mL; membrane potential and integrity, DiBAC4(3) fluorescence (EMRSA-17 [5]): majority of population was shifted in a rapid regular pattern due to the change in membrane potential; membrane potential and integrity, DiBAC4(3) fluorescence (clinical isolate): bulky peaks steadily moved towards the area of increasing fluorescence; efflux activity, EtBr accumulation [6]: decrease in the efflux activity was observed; efflux activity, EtBr accumulation [7]: decrease in the efflux activity was observed; production of O2- (ROS), lucigenin chemiluminescence (Clinical Isolates [8]): more production of O2^− was observed; production of O2- (ROS), lucigenin chemiluminescence (EMRSA-17 [9]): more production of O2^− was observed |
| Gentamicin | – | Synergistic | 0.164 | 0.16 | – | Synergistic | 4 µg/mL | 8 µg/mL | 512 µg/mL | FIC (s) (Clinical Isolates [1]): 0.3356; FIC (b) (Clinical Isolates [1]): 0.320; FIC (a) (Clinical Isolates [1]): 0.0156; MIC (a) (Clinical Isolates [1]; antibiotic alone): 512 µg/mL; FIC (a) (EMRSA-17 [2]): 0.0039 |
| CC[C@H]1OC(=O)[C@H](C)[C@@H](O[C@H]2C[C@@](C)(OC)[C@@H](O)[C@H](C)O2)[C@H](C)[C@@H](O[C@@H]2O[C@H](C)C[C@H](N(C)C)[C@H]2O)[C@](C)(O)C[C@@H](C)C(=O)[C@H](C)[C@@H](O)[C@]1(C)O [Erythromycin] | 2050 µg/mL | Synergistic | 0.324 | 0.32 | 1020 µg/mL | Synergistic | 8 µg/mL | 8 µg/mL | – | – |
| NCC[C@H](O)C(=O)N[C@@H]1C[C@H](N)[C@@H](O[C@H]2O[C@H](CN)[C@@H](O)[C@H](O)[C@H]2O)[C@H](O)[C@H]1O[C@H]1O[C@H](CO)[C@@H](O)[C@H](N)[C@H]1O [Amikacin] | 128 µg/mL | Partial | 0.351 | 0.32 | – | Synergistic | 8 µg/mL | – | – | – |
| Penicillin | – | Synergistic | 0.164 | 0.16 | – | Synergistic | 4 µg/mL | 8 µg/mL | 2084 µg/mL | FIC (s) (Clinical Isolates [1]): 0.3238; FIC (b) (Clinical Isolates [1]): 0.320; FIC (a) (Clinical Isolates [1]): 0.0038; MIC (a) (Clinical Isolates [1]; antibiotic alone): 2084 µg/mL; FIC (a) (EMRSA-17 [2]): 0.0039 |
| [H]/N=C(/N)N[C@H]1[C@H](O)[C@@H](O)[C@H](O[C@@H]2O[C@@H](C)[C@](O)(C=O)[C@H]2O[C@@H]2O[C@@H](CO)[C@H](O)[C@@H](O)[C@@H]2NC)[C@@H](N/C(N)=N\[H])[C@@H]1O [Streptomycin] | 2050 µg/mL | Synergistic | 0.647 | 0.64 | 2080 µg/mL | Partial | 16 µg/mL | – | – | Effect (EMRSA-17 [2]; antibiotic in combination with Compound 1, listed as streptomycin): partial synergistic effect |
